Laboratory results taken from ChEMBL document CHEMBL3632485 (Eur J Med Chem, 2015).
pKi: −log10 of the molar value.

What was measured:
Carbonic anhydrase 9 = Carbonic anhydrase 9 (Homo sapiens, UniProt Q16790)
Description: Inhibition of human recombinant carbonic anhydrase 9 expressed in Escherichia coli preincubated for 6 hrs by stopped flow CO2 hydrase assay

Carbonic anhydrase 12 = Carbonic anhydrase 12 (Homo sapiens, UniProt O43570); assay: Inhibition of human recombinant carbonic anhydrase 12 expressed in Escherichia coli preincubated for 6 hrs by stopped flow CO2 hydrase assay
Carbonic anhydrase 2 = Carbonic anhydrase 2 (Homo sapiens, UniProt P00918); assay: Inhibition of human recombinant carbonic anhydrase 2 expressed in Escherichia coli preincubated for 6 hrs by stopped flow CO2 hydrase assay
Carbonic anhydrase 1 = Carbonic anhydrase 1 (Homo sapiens, UniProt P00915); assay: Inhibition of human recombinant carbonic anhydrase 1 expressed in Escherichia coli preincubated for 6 hrs by stopped flow CO2 hydrase assay
Sequence of Carbonic anhydrase 1 (P00915 whole entry): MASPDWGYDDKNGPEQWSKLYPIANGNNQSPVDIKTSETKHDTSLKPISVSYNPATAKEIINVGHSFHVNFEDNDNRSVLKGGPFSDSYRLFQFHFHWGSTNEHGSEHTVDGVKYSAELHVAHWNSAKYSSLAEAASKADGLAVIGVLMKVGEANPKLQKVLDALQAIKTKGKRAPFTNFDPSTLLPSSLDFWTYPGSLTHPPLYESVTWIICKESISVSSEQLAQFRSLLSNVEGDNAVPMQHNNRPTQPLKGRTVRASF

Sequence of Carbonic anhydrase 12 (O43570 whole entry): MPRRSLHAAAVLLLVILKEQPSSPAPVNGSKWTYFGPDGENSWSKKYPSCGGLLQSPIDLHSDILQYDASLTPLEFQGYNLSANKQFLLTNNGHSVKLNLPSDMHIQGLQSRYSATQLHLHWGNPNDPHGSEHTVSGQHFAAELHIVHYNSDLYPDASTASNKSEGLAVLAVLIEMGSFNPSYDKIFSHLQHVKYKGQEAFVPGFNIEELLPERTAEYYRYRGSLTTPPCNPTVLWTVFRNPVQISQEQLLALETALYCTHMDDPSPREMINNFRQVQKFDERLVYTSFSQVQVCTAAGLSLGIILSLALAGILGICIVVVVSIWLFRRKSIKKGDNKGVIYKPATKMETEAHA

SMILES	pKi (Carbonic anhydrase 9)	other results
NS(=O)(=O)c1ccc(-n2nc(C(=O)N/N=C3\C(=O)Nc4ccccc43)cc2-c2ccccc2)cc1	8.06	
NS(=O)(=O)c1ccc(-n2nc(C(=O)N/N=C3\C(=O)Nc4ccc(Cl)cc43)cc2-c2ccccc2)cc1	8.13	
NS(=O)(=O)c1ccc(-n2nc(C(=O)N/N=C3\C(=O)Nc4ccc(Br)cc43)cc2-c2ccccc2)cc1	7.70	
Cc1ccc2c(c1)/C(=N/NC(=O)c1cc(-c3ccccc3)n(-c3ccc(S(N)(=O)=O)cc3)n1)C(=O)N2	8.33	
NS(=O)(=O)c1ccc(-n2ncc(C(=O)N/N=C3\C(=O)Nc4ccccc43)c2-c2ccccc2)cc1	7.28	
NS(=O)(=O)c1ccc(-n2ncc(C(=O)N/N=C3\C(=O)Nc4ccc(Cl)cc43)c2-c2ccccc2)cc1	8.01	
NS(=O)(=O)c1ccc(-n2ncc(C(=O)N/N=C3\C(=O)Nc4ccc(Br)cc43)c2-c2ccccc2)cc1	8.11	
NS(=O)(=O)c1ccc(-n2ncc(C(=O)N/N=C3\C(=O)Nc4ccc([N+](=O)[O-])cc43)c2-c2ccccc2)cc1	7.80	
NS(=O)(=O)c1ccc(-n2ncc(C(=O)N/N=C3\C(=O)N(Cc4ccccc4)c4ccccc43)c2-c2ccccc2)cc1		pKi (Carbonic anhydrase 12): 8.19
Nc1c(C(=O)N/N=C2\C(=O)Nc3ccccc32)cnn1-c1ccc(S(N)(=O)=O)cc1	8.55	
Nc1c(C(=O)N/N=C2\C(=O)Nc3ccc(Cl)cc32)cnn1-c1ccc(S(N)(=O)=O)cc1	8.60	
Nc1c(C(=O)N/N=C2\C(=O)Nc3ccc(Br)cc32)cnn1-c1ccc(S(N)(=O)=O)cc1	8.03	
COc1ccc2c(c1)/C(=N/NC(=O)c1cnn(-c3ccc(S(N)(=O)=O)cc3)c1N)C(=O)N2	8.46	
Nc1c(C(=O)N/N=C2\C(=O)Nc3ccc([N+](=O)[O-])cc32)cnn1-c1ccc(S(N)(=O)=O)cc1	8.13	pKi (Carbonic anhydrase 2): 7.64; pKi (Carbonic anhydrase 12): 8.27; pKi (Carbonic anhydrase 1): 7.15
